# What was measured:
# Staphylococcus aureus = test: Antibacterial activity against Staphylococcus aureus ATCC 29213 assessed as inhibition of bacterial growth incubated for 16 to 18 hrs by microbroth dilution method; type: functional; conditions: time 16-18 hrs, read-out: MIC100
# Enterococcus faecalis = test: Antibacterial activity against Enterococcus faecalis ATCC 29212 assessed as inhibition of bacterial growth incubated for 16 to 18 hrs by microbroth dilution method; type: functional; conditions: time 16-18 hrs, read-out: MIC100
# Escherichia coli = test: Antibacterial activity against Escherichia coli ATCC 25922 assessed as inhibition of bacterial growth incubated for 16 to 18 hrs by microbroth dilution method; type: functional; conditions: time 16-18 hrs, read-out: MIC100
# [1] = tested on: Stenotrophomonas maltophilia; test: Antibacterial activity against Stenotrophomonas maltophilia ATCC 17808 assessed as inhibition of bacterial growth incubated for 16 to 18 hrs by microbroth dilution method; type: functional; conditions: time 16-18 hrs, read-out: MIC100
# [2] = Hemolytic activity in sheep RBC assessed as hemolysis incubated for 1 hrs by microplate reader analysis; type: toxicity, cell-based, Ovis aries, Erythrocyte; conditions: sheep red blood cells
Compound,MIC (Staphylococcus aureus) [µg/mL],MIC (Enterococcus faecalis) [µg/mL],MIC (Escherichia coli) [µg/mL],MIC [1] [µg/mL],HC50 at 1 h [2] [µg/mL]
CC(=O)NC[C@H]1CN(c2ccc(N3CCN(C(=O)CN(C)Cc4cccc(C)c4)CC3)c(F)c2)C(=O)O1,16,4,> 128,> 128,> 1280
CC(=O)NC[C@H]1CN(c2ccc(N3CCN(C(=O)CN(C)Cc4ccccc4)CC3)c(F)c2)C(=O)O1,16,4,> 128,> 128,> 1280
CC(=O)NC[C@H]1CN(c2ccc(N3CCN(C(=O)CN(C)Cc4cccc(Br)c4)CC3)c(F)c2)C(=O)O1,8,4,> 128,> 128,> 1280
CC(=O)NC[C@H]1CN(c2ccc(N3CCN(C(=O)C[N+](C)(C)Cc4ccccc4)CC3)c(F)c2)C(=O)O1.[Br-],128,4,> 128,> 128,> 1280
CC(=O)NC[C@H]1CN(c2ccc(N3CCN(C(=O)CN(C)Cc4ccc(Cl)cc4)CC3)c(F)c2)C(=O)O1,16,2,> 128,> 128,> 1280
CC[N+](C)(C)CC(=O)N1CCN(c2ccc(N3C[C@H](CNC(C)=O)OC3=O)cc2F)CC1.[Br-],64,32,> 128,> 128,> 1280
CN[C@H](CC(C)C)C(=O)N[C@H]1C(=O)N[C@@H](CC(N)=O)C(=O)N[C@H]2C(=O)N[C@H]3C(=O)N[C@H](C(=O)N[C@H](C(=O)O)c4cc(O)cc(O)c4-c4cc3ccc4O)[C@H](O)c3ccc(c(Cl)c3)Oc3cc2cc(c3O[C@@H]2O[C@H](CO)[C@@H](O)[C@H](O)[C@H]2O[C@H]2C[C@](C)(N)[C@H](O)[C@H](C)O2)Oc2ccc(cc2Cl)[C@H]1O [VANCOMYCIN],–,1,–,–,–
CCCCCC[N+](C)(C)CC(=O)N1CCN(c2ccc(N3C[C@H](CNC(C)=O)OC3=O)cc2F)CC1.[Br-],128,8,> 128,> 128,> 1280
COc1ccc(CN(C)CC(=O)N2CCN(c3ccc(N4C[C@H](CNC(C)=O)OC4=O)cc3F)CC2)cc1,16,2,> 128,> 128,> 1280
COc1ccccc1CN(C)CC(=O)N1CCN(c2ccc(N3C[C@H](CNC(C)=O)OC3=O)cc2F)CC1,16,2,> 128,> 128,> 1280
Br.CC(=O)NC[C@H]1CN(c2ccc(N3CCN(C(=O)C[N+](C)(C)Cc4ccc([N+](=O)[O-])cc4)CC3)c(F)c2)C(=O)O1,128,128,> 128,> 128,> 1280
CC(=O)NC[C@H]1CN(c2ccc(N3CCN(C(=O)CN(C)Cc4cccc(Cl)c4)CC3)c(F)c2)C(=O)O1,8,2,> 128,> 128,> 1280
COc1cccc(CN(C)CC(=O)N2CCN(c3ccc(N4C[C@H](CNC(C)=O)OC4=O)cc3F)CC2)c1,16,2,> 128,> 128,> 1280
CC(=O)NC[C@H]1CN(c2ccc(N3CCN(C(=O)C[N+](C)(C)Cc4ccc(C#N)cc4)CC3)c(F)c2)C(=O)O1.[Br-],> 128,32,> 128,> 128,> 1280
CCCCC[N+](C)(C)CC(=O)N1CCN(c2ccc(N3C[C@H](CNC(C)=O)OC3=O)cc2F)CC1.[Br-],> 128,16,> 128,> 128,> 1280
C[C@@H](O)[C@H]1C(=O)N2C(C(=O)O)=C(S[C@@H]3CN[C@H](C(=O)N(C)C)C3)[C@H](C)[C@H]12 [MEROPENEM],–,–,0.031,0.031,–
